According to ChEMBL document CHEMBL5346958 (J Med Chem, 2023):
Numbering of substitutions follows the chain as printed.

Legend:
[1] = molecular target: T1, Aldo-keto reductase family 1 member C3 (Homo sapiens, UniProt P42330); assay: Inhibition of AKR1C3 (unknown origin)
T1 sequence (P42330 whole entry): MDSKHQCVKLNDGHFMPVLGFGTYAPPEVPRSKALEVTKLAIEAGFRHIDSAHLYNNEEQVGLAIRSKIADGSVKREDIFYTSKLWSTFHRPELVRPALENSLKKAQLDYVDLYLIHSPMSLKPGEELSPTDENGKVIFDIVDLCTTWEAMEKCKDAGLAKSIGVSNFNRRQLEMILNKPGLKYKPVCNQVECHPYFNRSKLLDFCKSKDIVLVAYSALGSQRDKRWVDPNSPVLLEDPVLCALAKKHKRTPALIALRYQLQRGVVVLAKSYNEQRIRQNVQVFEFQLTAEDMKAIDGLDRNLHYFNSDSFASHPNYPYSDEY

Homo sapiens = species on record: Homo sapiens; assay: Selectivity ratio of IC50 for AKR1C2 (unknown origin) to IC50 for AKR1C3 (unknown origin)
[2] = molecular target: T2, Aldo-keto reductase family 1 member C1 (Homo sapiens, UniProt Q04828); assay: Inhibition of recombinant AKR1C1 (unknown origin) dehydrogenase activity by measuring NADH formation by spectrophotometry
T2 sequence (Q04828 whole entry): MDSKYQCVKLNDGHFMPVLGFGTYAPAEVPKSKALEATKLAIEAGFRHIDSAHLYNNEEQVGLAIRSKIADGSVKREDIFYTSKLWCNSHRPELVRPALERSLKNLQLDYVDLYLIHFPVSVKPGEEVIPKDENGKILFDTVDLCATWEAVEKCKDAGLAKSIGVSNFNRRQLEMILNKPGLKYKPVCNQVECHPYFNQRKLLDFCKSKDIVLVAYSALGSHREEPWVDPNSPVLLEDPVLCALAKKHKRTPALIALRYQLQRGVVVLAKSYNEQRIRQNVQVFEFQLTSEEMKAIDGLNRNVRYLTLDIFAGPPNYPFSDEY

[3] = molecular target: T3, Aldo-keto reductase family 1 member C2 (Homo sapiens, UniProt P52895); assay: Inhibition of recombinant AKR1C2 (unknown origin) dehydrogenase activity by measuring NADH formation by spectrophotometry
T3 sequence (P52895 whole entry): T2 sequence (Q04828 whole entry) with T38V, R47H, L54V, C87S, V151M, R170H, Q172L

[4] = molecular target: T1, Aldo-keto reductase family 1 member C3; assay: Inhibition of recombinant AKR1C3 (unknown origin) dehydrogenase activity by measuring NADH formation by spectrophotometry
[5] = Apparent volume of distribution during terminal phase in BALB/c mouse at 10 mg/kg, po measured upto 24 hrs; type: ADME, organism-based; settings: in vivo
[6] = Extrapolated AUC in BALB/c mouse at 10 mg/kg, po measured upto 24 hrs; type: ADME, organism-based; settings: in vivo
[7] = molecular target: T4, Aldo-keto reductase family 1 member C1 (Homo sapiens) (UniProt Q04828); assay: Inhibition of recombinant AKR1C1 (unknown origin) dehydrogenase activity at 100 uM by measuring NADH formation by spectrophotometry relative to control
T4 sequence (whole entry): T2 sequence (Q04828 whole entry)

[8] = Cmax in BALB/c mouse at 10 mg/kg, po measured upto 24 hrs; type: ADME, organism-based; design: dose 10 mg/kg, time < 24 hrs, route po; settings: in vivo
[9] = AUC (0 to infinity) in BALB/c mouse at 10 mg/kg, po measured upto 24 hrs; type: ADME, organism-based; design: time < 24 hrs, dose 10 mg/kg, route po; settings: in vivo
[10] = Stability of compound in SGF assessed as compound remaining after 1 hrs; type: ADME; settings: simulated gi fluid
[11] = Half life in BALB/c mouse at 10 mg/kg, po measured upto 24 hrs; type: ADME, organism-based; settings: in vivo
[12] = Stability of compound in SIF assessed as compound remaining after 2 hrs; type: ADME; settings: simulated gi fluid
[13] = AUC (0 to t) in BALB/c mouse at 10 mg/kg, po measured upto 24 hrs; type: ADME, organism-based; design: time < 24 hrs, dose 10 mg/kg, route po; settings: in vivo
[14] = Tmax in BALB/c mouse at 10 mg/kg, po measured upto 24 hrs; type: ADME, organism-based; settings: in vivo
[15] = Apparent oral clearance in BALB/c mouse at 10 mg/kg, po measured upto 24 hrs; type: ADME, organism-based; settings: in vivo
[16] = Prodrug conversion in mouse liver microsomes assessed as formation of (E)-3-(3-(11,2,4)triazolo(1,5-alpyridin-6-y1)-5-((4-methylbenzy1)-carbamoyl)phenyl)acrylic acid over 60 mins; type: ADME, Microsome; settings: 1 h
[17] = Toxicity in NSG mouse xenografted with human 22Rv1 cells assessed as body weight loss at 25 to 50 mg/kg, ip treated for 26 days; type: organism-based, CWR22R; settings: in vivo, 624 h, dose 25-50 mg/kg, time 26 day
[18] = Metabolic stability in human liver microsomes assessed as compound degradation by LC-MS/MS analysis; type: ADME, Microsome; settings: read-out: Drug degradation
[19] = Metabolic stability in mouse plasma assessed as formation of (E)-3-(3-(11,2,4)triazolo(1,5-alpyridin-6-y1)-5-((4-methylbenzy1)-carbamoyl)phenyl)acrylic acid; type: ADME, cell-free
[20] = Half life in BALB/c mouse assessed as (E)-3-(3-(11,2,4)triazolo(1,5-alpyridin-6-y1)-5-((4-methylbenzy1)-carbamoyl)phenyl)acrylic acid at 10 mg/kg, po measured upto 24 hrs; type: ADME, organism-based; settings: in vivo
CWR22R [21] = assay: Antitumor activity against human 22Rv1 cells xenografted in NSG mouse tumor model assessed as reduction in tumor volume at 50 mg/kg, ip treated for 26 days relative to control; type: functional; settings: 22Rv1, 624 h, time 26 day
CWR22R [22] = assay: Antitumor activity against human 22Rv1 cells xenografted in NSG mouse tumor model assessed as reduction in tumor volume at 25 mg/kg, ip treated for 26 days relative to control; type: functional; settings: 22Rv1, 624 h, time 26 day
[23] = Tmax in BALB/c mouse assessed as (E)-3-(3-(11,2,4)triazolo(1,5-alpyridin-6-y1)-5-((4-methylbenzy1)-carbamoyl)phenyl)acrylic acid at 10 mg/kg, po measured upto 24 hrs; type: ADME, organism-based; settings: in vivo
[24] = Metabolic stability in mouse liver microsomes assessed as compound degradation by LC-MS/MS analysis; type: ADME, Microsome; settings: read-out: Drug degradation
[25] = Cmax in BALB/c mouse assessed as (E)-3-(3-(11,2,4)triazolo(1,5-alpyridin-6-y1)-5-((4-methylbenzy1)-carbamoyl)phenyl)acrylic acid at 10 mg/kg, po measured upto 24 hrs; type: ADME, organism-based; design: dose 10 mg/kg, time < 24 hrs, route po; settings: in vivo
[26] = AUC (0 to infinity) in BALB/c mouse assessed as (E)-3-(3-(11,2,4)triazolo(1,5-alpyridin-6-y1)-5-((4-methylbenzy1)-carbamoyl)phenyl)acrylic acid at 10 mg/kg, po measured upto 24 hrs; type: ADME, organism-based; design: time < 24 hrs, dose 10 mg/kg, route po; settings: in vivo
[27] = AUC (0 to t) in BALB/c mouse assessed as (E)-3-(3-(11,2,4)triazolo(1,5-alpyridin-6-y1)-5-((4-methylbenzy1)-carbamoyl)phenyl)acrylic acid at 10 mg/kg, po measured upto 24 hrs; type: ADME, organism-based; design: dose 10 mg/kg, time < 24 hrs, route po; settings: in vivo
[28] = Prodrug conversion in human liver microsomes assessed as formation of (E)-3-(3-(11,2,4)triazolo(1,5-alpyridin-6-y1)-5-((4-methylbenzy1)-carbamoyl)phenyl)acrylic acid over 60 mins; type: ADME, Microsome; settings: 1 h
[29] = Stability on mouse plasma assessed as compound remaining measured at 30 mins; type: ADME, cell-free; settings: 0.5 h

Structure (SMILES): CN(CCC(=O)O)C(=O)c1ccc2c(c1)CC[C@@H]1[C@@H]2CC[C@]2(C)C(c3cncc(F)c3)=CC[C@@H]12
- IC50 [1]: 0.0018 µM

Structure (SMILES): Cc1ccc(CNC(=O)c2cc(/C=C/C(=O)O)cc(-c3ccc4nccnc4c3)c2)cc1
- Ratio IC50 (Homo sapiens): 133

Structure (SMILES): Cc1ccc(CNC(=O)c2cc(/C=C/C(=O)O)cc(-c3ccc(-n4c5ccccc5c5ccccc54)cc3)c2)cc1
- Ratio IC50 (Homo sapiens): 221

Structure (SMILES): CC(C)=CCOc1cc(/C=C/C(=O)O)cc(C(=O)NCc2ccc(C)cc2)c1
- Ratio IC50 (Homo sapiens): 187

Structure (SMILES): Cc1ccc(CNC(=O)c2cc(C#CC3CC3)cc(/C=C/C(=O)O)c2)cc1
- Ratio IC50 (Homo sapiens): 74

Structure (SMILES): Cc1ccc(CNC(=O)c2cc(/C=C/C(=O)O)cc(-c3ccccc3F)c2)cc1
- Ratio IC50 (Homo sapiens): > 1430
- IC50 [2]: > 100 µM
- IC50 [3]: > 100 µM

Structure (SMILES): Cc1ccc(CNC(=O)c2cc(/C=C/C(=O)O)cc(-c3ccc4c(c3)OCO4)c2)cc1
- IC50 [2]: > 100 µM

Structure (SMILES): Cc1ccc(CNC(=O)c2cc(/C=C/C(=O)O)cc(-c3ccc(F)cc3)c2)cc1
- Ratio IC50 (Homo sapiens): 600
- IC50 [2]: > 100 µM

Structure (SMILES): C/C=C/Cc1cc(/C=C/C(=O)O)cc(C(=O)NCc2ccc(C)cc2)c1
- Ratio IC50 (Homo sapiens): 354
- IC50 [2]: > 100 µM

Structure (SMILES): Cc1ccc(CNC(=O)c2cc(/C=C/C#N)cc(-c3ccc(Oc4ccccc4)cc3)c2)cc1
- IC50 [4]: 1.4 µM

Structure (SMILES): Cc1ccc(CNC(=O)c2cc(/C=C/C(=O)O)cc(-c3ccc(Cl)cc3)c2)cc1
- Ratio IC50 (Homo sapiens): 333
- IC50 [2]: > 100 µM

Structure (SMILES): Cc1ccc(CNC(=O)c2cc(/C=C/C(=O)O)cc(-c3cccc(F)c3)c2)cc1
- Ratio IC50 (Homo sapiens): 960
- IC50 [2]: > 100 µM

Structure (SMILES): Cc1ccc(CNC(=O)c2cc(/C=C/C(=O)O)cc(CC(C)c3ccccc3)c2)cc1 (centres undefined)
- Ratio IC50 (Homo sapiens): 177

Structure (SMILES): C/C=C\Cc1cc(/C=C/C(=O)O)cc(C(=O)NCc2ccc(C)cc2)c1
- Ratio IC50 (Homo sapiens): 200

Structure (SMILES): Cc1ccc(CNC(=O)c2cc(/C=C/C(=O)O)cc(-c3ccc4ncnn4c3)c2)cc1
- Vz/F [5]: 405 L/kg
- %AUCextra [6]: 28.8%
- inhibition [7]: 8%
- Cmax [8]: 174.8 ng/mL
- Ratio IC50 (Homo sapiens): 1220
- IC50 [2]: > 100 µM
- AUC [9]: 515.1 ng·h/mL
- Stability [10]: Stable
- t1/2 [11]: 864 min
- Stability [12]: Stable
- AUCt [13]: 367.6 ng·h/mL
- Tmax [14]: 6 min
- CL/F [15]: 323 mL/min/kg

Structure (SMILES): COC(=O)/C=C/c1cc(C(=O)NCc2ccc(C)cc2)cc(-c2ccc3ncnn3c2)c1
- Drug metabolism [16]: Metabolite_Detected
- Activity [17]: Non-Toxic
- metabolised [18]: 25%
- Cmax [8]: 92.796 ng/mL
- Drug metabolism [19]: Metabolite_Detected
- t1/2 [20]: 534 min
- inhibition in vivo at 50 mg/kg (CWR22R [21]): 45%
- inhibition in vivo at 25 mg/kg (CWR22R [22]): 30%
- Stability [10]: Stable
- Tmax [23]: 12 min
- metabolised [24]: 25%
- Cmax [25]: 11599.4 ng/mL
- AUC [26]: 6550.1 ng·h/mL
- AUCt [27]: 6382.8 ng·h/mL
- Stability [12]: Stable
- AUCt [13]: 36.416 ng·h/mL
- Tmax [14]: 19 min
- Drug metabolism [28]: Metabolite_Detected
- Stability [29]: Unstable

Structure (SMILES): Cc1ccc(CNC(=O)c2cc(Br)cc(/C=C/C(=O)O)c2)cc1
- Ratio IC50 (Homo sapiens): > 333
- IC50 [2]: > 100 µM
- IC50 [3]: > 100 µM

Structure (SMILES): Cc1ccc(CNC(=O)c2cc(C#Cc3ccccc3)cc(/C=C/C(=O)O)c2)cc1
- Ratio IC50 (Homo sapiens): 61

Structure (SMILES): Cc1ccc(CNC(=O)c2cc(/C=C/C(=O)O)cc(-c3ccc4ccccc4c3)c2)cc1
- Ratio IC50 (Homo sapiens): 140

Structure (SMILES): CC(C)=CCc1cc(/C=C/C#N)cc(C(=O)NCc2ccc(C)cc2)c1
- IC50 [4]: 2.7 µM

Structure (SMILES): Cc1ccc(CNC(=O)c2cc(/C=C/C(=O)O)cc(-c3ccc(CN4CCOCC4)c(F)c3)c2)cc1
- Ratio IC50 (Homo sapiens): 16

Structure (SMILES): Cc1ccc(CNC(=O)c2cc(/C=C/C(=O)O)cc(-c3ccccc3)c2)cc1
- Ratio IC50 (Homo sapiens): > 2500
- IC50 [2]: > 100 µM
- IC50 [3]: > 100 µM

Structure (SMILES): Cc1ccc(CNC(=O)c2cc(/C=C/C(=O)O)cc(-c3ccc(Oc4ccccc4)cc3)c2)cc1
- Ratio IC50 (Homo sapiens): 51

Structure (SMILES): Cc1ccc(CNC(=O)c2cc(/C=C/C(=O)O)cc(-c3ccc4cccnc4c3)c2)cc1
- Ratio IC50 (Homo sapiens): 109

Structure (SMILES): Cc1ccc(CNC(=O)c2cc(/C=C/C(=O)O)cc(-c3ccc(-c4ccccc4)cc3)c2)cc1
- Ratio IC50 (Homo sapiens): 580

Structure (SMILES): Cc1ccc(CNC(=O)c2cc(/C=C/C(=O)O)cc(-c3ccc(C)cc3)c2)cc1
- Ratio IC50 (Homo sapiens): 160

Structure (SMILES): Cc1ccc(CNC(=O)c2cc(/C=C/C(=O)O)cc(-c3ccc4c(c3)OCCO4)c2)cc1
- Ratio IC50 (Homo sapiens): 200
- IC50 [2]: > 100 µM

Structure (SMILES): CC[C@@H](NC(=O)c1cc(/C=C/C(=O)O)cc(-c2ccc(C(C)C)cc2)c1)c1ccccc1
- Ratio IC50 (Homo sapiens): 51
